Measured values as given in publication PMC4437027, “New ambuic acid derivatives from the solid culture of Pestalotiopsis neglecta and their nitric oxide inhibitory activity” (Scientific Reports, 2015).
Like-named read-outs stand apart in the source and are kept apart here.

Assays:
[1] = test system: NO production in LPS-induced macrophages (RAW 264.7); assay: Inhibition of NO production in LPS-induced macrophages (RAW 264.7), nitrite accumulation; format: cell-based; conditions: Mus musculus
Excerpt: Mouse monocyte-macrophages RAW 264.7 (ATCC TIB-71) were purchased from the Chinese Academy of Science. RPMI 1640 medium, penicillin, streptomycin, and fetal bovine serum were purchased from Invitrogen (NewYork, USA). Lipopolysaccharide (LPS), DMSO, 3-(4,5-dimethylthiazol-2-yl)-2,5-diphenyl-2H-tetrazolium bromide (MTT), and hydrocortisone were obtained from Sigma Chemical Co. (Saint Louis, MO, U.S.A). RAW 264.7 cells were kept in RPMI 1640 medium supplemented with penicillin (100 U/mL), streptomycin (100 μg/mL), and 10% heat-inactivated fetal bovine serum at 37°C in a humidified incubator with 5% CO2 and 95% air. RAW 264.7 cells were passaged by trypsinization until they attained confluence and were used for assays during the exponential growth phase.
Compounds 1, 4–8 were dissolved in DMSO and were further diluted with the culture medium to give a final DMSO concentration of 0.2% in the assay. This concentration of DMSO had no significant effect on the growth of the cell line tested. The procedure of NO inhibition assay was conducted as previously reported. The level of NO was assessed by measuring the accumulation of nitrite (NO2^−) using the same method as previously reported. Cytotoxicity was measured using the 3-(4,5-dimethylthiazol-2-yl)-2.5-diphenyltetrazolium bromide (MTT) assay method. The inhibition rate was calculated based on the following equation (1).

Pythium ultimum = test system: Pythium ultimum; parameters: method as in PMID 11261579; conditions: cited from earlier work
Helminthosporium sativum = test system: Helminthosporium sativum; parameters: method as in PMID 11261579; conditions: cited from earlier work
Cephalosporium gramineum = test system: Cephalosporium gramineum; parameters: method as in PMID 11261579; conditions: cited from earlier work
Fusarium cubense = test system: Fusarium cubense; parameters: method as in PMID 11261579; conditions: cited from earlier work
[2] = test system: biosynthesis of cyclic peptide quormones in Enterococcus faecalis; conditions: Gram-positive bacteria Enterococcus faecalis; cited from earlier work
Staphyococcus aureus = test system: Staphyococcus aureus; parameters: method as in PMID 19117486; conditions: Gram-positive bacterium Staphyococcus aureus; cited from earlier work
Diplodia natelensis = test system: Diplodia natelensis; parameters: method as in PMID 11261579; conditions: cited from earlier work
Fusarium solani = test system: Fusarium solani; parameters: method as in PMID 11261579; conditions: cited from earlier work
[3] = RAW264.7, LPS-induced RAW 264.7 macrophages, read-out: NO inhibitory activity (IC50)

Structure (SMILES): CC(=CCC12OC1C(O)C(CO)=C(C=CCCCC(C)O)C2=O)C(=O)O (stereo not drawn) [Compound 1]
- IC50 [1, 3]: > 100 µM

Structure (SMILES): CCCCC/C=C/C1=C(COC(C)=O)[C@@H](O)[C@H]2O[C@@]2(C/C=C(\C)C(=O)O)[C@H]1O [Compound 4]
- IC50 [1, 3]: 88.7 ± 6.74 µM

Structure (SMILES): CCCCC/C=C/C1=C(CO)[C@@H](O)[C@H]2O[C@@]2(C/C=C(\C)C(=O)O)[C@H]1O [Compound 5]
- IC50 [1, 3]: > 100 µM

Structure (SMILES): CCCCC/C=C/C1=C(COC(C)=O)[C@@H](O)[C@H]2O[C@@]2(C/C=C(\C)C(=O)O)C1=O [Compound 6]
- IC50 [1, 3]: 11.2 ± 0.79 µM

Structure (SMILES): CCCCC/C=C/C1=C(CO)[C@H](O)[C@H]2O[C@@]2(C/C=C(\C)C(=O)O)C1=O [Compound 7, Ambuic acid]
- Antifungal effect (Pythium ultimum): moderate antifungal effects
- Antifungal effect (Helminthosporium sativum): moderate antifungal effects
- Antifungal effect (Cephalosporium gramineum): moderate antifungal effects
- IC50 [1, 3]: 20.8 ± 1.41 µM
- Antifungal effect (Fusarium cubense): moderate antifungal effects
- Inhibition of biosynthesis of cyclic peptide quormones [2]: inhibits the biosynthesis of cyclic peptide quormones
- Antimicrobial effect (Staphyococcus aureus): antimicrobial
- Antifungal effect (Diplodia natelensis): moderate antifungal effects
- Antifungal effect (Fusarium solani): moderate antifungal effects

Structure (SMILES): CCCCC/C=C/C1=C(CO)C(=O)C[C@](O)(C/C=C(\C)C(=O)O)[C@H]1O [Compound 8]
- IC50 [1, 3]: > 100 µM

Structure (SMILES): C[C@]12CCC(=O)C=C1CC[C@@H]1[C@@H]2[C@@H](O)C[C@@]2(C)[C@H]1CC[C@]2(O)C(=O)CO [Hydrocortisone, hydrocortisone, reference compound]
- IC50 ([1]; RAW264.7, read-out: NO inhibitory activity (IC50)): 53.7 ± 3.86 µM
